Reference: patent US20130053430A1, “MODULATION OF CETP EXPRESSION” (Isis Pharmaceuticals, Inc., priority 2010, published 2013)
e = 2'-O-(2-methoxyethyl) (MOE); d = 2'-deoxy (DNA)

Assays:
[1] = test system: human CETP mRNA; experiment: Antisense inhibition of human CETP mRNA in primary hepatocytes from huCETP transgenic mice (Example 4); type: cell-based, mouse; settings: cytofectin, ~24 hours
Outline: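 Primary hepatocytes from human CETP transgenic mice, 17,500 cells/well, transfected by cytofectin with 100 nM or 200 nM antisense oligonucleotide. After about 24 h, CETP mRNA quantified by real-time PCR, normalised to GAPDH, as percent inhibition versus untreated cells.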

[2] = test system: human CETP mRNA; experiment: Dose-dependent antisense inhibition of human CETP in SW872 liposarcoma cells (Example 2); type: cell-based; settings: Lipofectin, ~16 hours (Example 2)
Method: Cells were plated at a density of 50,000 cells per well in a 24-well plate and transfected using Lipofectin reagent with 50 nM, 150 nM, and 300 nM concentrations of each antisense oligonucleotide. After approximately 16 hours, RNA was isolated from the cells and CETP mRNA levels were measured by quantitative real-time PCR. CETP mRNA levels were normalized to total RNA content, as measured by the house-keeping gene, GAPDH mRNA levels. Results are presented in Table 4 as percent inhibition of CETP, relative to untreated control cells.

[3] = test system: human CETP mRNA; experiment: Antisense inhibition of human CETP mRNA in SW872 liposarcoma cells (Example 1); type: cell-based; settings: 150 nM antisense oligonucleotide, lipofectin, ~24 hours, relative to untreated control cells
Outline: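 SW872 cells transfected (lipofectin) with 150 nM 5-10-5 MOE gapmer (phosphorothioate, 5-methylcytosine). After about 24 h, CETP mRNA measured by qRT-PCR, normalized to GAPDH; values are % inhibition versus untreated cells.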

[4] = test system: CETP protein; experiment: Plasma CETP protein by ELISA in huCETP transgenic mice (Example 5); type: in vivo, human; settings: normal chow, 50 mg/kg i.p. twice per week for 6 weeks, compared to PBS control
Method: (§1) The mice were divided into five treatment groups. The first four groups received intraperitoneal injections of ISIS 349511, ISIS 349512, ISIS 349515, or ISIS 349517 at a dose of 50 mg/kg twice per week for 6 weeks. The fifth group received intraperitoneal injections of saline twice weekly for 6 weeks.
Plasma levels of CETP protein were measured by ELISA (Alpco, N.H.). […] The results are expressed as percentage inhibition compared to the PBS control.

[5] = Plasma glucose in huCETP transgenic mice (Example 5); type: in vivo; settings: 50 mg/kg i.p. twice per week
Method: as §1
Plasma glucose values were determined using a Beckman Glucose Analyzer II (Beckman Coulter) by a glucose oxidase method (Lott, J. A. et al., Clin. Chem. 21: 1754-1760, 1975).

[6] = Plasma cholesterol and triglyceride levels in huCETP transgenic mice (Example 5); type: in vivo; settings: 50 mg/kg i.p. twice per week; for HDL / LDL / Total cholesterol / Triglycerides / VLDL: plasma
Method: as §1
Plasma cholesterol were extracted at weeks 3 and 6 by the method of Bligh and Dyer (Bligh, E. G. and Dyer, W. J. Can. J. Biochem. Physiol. 37: 911-917, 1959) and measured with an Olympus clinical analyzer (Hitachi Olympus AU400e, Melville, N.Y.). HDL, LDL and VLDL cholesterol were individually measured by HPLC. Triglyceride levels were measured with the use of a commercially available triglyceride kit (DCL Triglyceride Reagent; Diagnostic Chemicals Ltd.). The results are presented in Tables 13 and 14 and are expressed in mg/dL. There was a significant increase in HDL levels in mice treated with ISIS oligonucleotides.

[7] = test system: human CETP mRNA; experiment: Liver CETP mRNA in huCETP transgenic mice, normal chow (Example 5); type: in vivo; settings: 50 mg/kg i.p. twice per week for 6 weeks, relative to PBS control
Method: Male huCETP transgenic mice were maintained on a 12-hour light/dark cycle and fed ad libitum normal Purina mouse chow. Animals were acclimated for at least 7 days in the research facility before initiation of the experiment. Antisense oligonucleotides (ASOs) were prepared in buffered saline (PBS) and sterilized by filtering through a 0.2 micron filter. Oligonucleotides were dissolved in 0.9% PBS for injection.
as §1
Twenty four hours after the final dose, the animals were sacrificed and liver tissue was isolated. Liver RNA was isolated for real-time PCR analysis of CETP. Two primer probe sets, hCETP (forward sequence […], designated herein as SEQ ID NO: 118; reverse sequence […], designated herein as SEQ ID NO: 119; probe sequence TGCGGACCGATGCCCCTGAX, designated herein as SEQ ID NO: 120) and hCETP2_LTS00182 (forward sequence […], designated herein as SEQ ID NO: 38; reverse sequence GGCTCACGCCTTTGCTGTT, designated herein as SEQ ID NO: 39: probe sequence CGGCTCGAGGTAGTGTTTACAGCCCTCX, designated herein as SEQ ID NO: 40), were used. These primer probe sets target the CETP mRNA transcript at different regions. As presented in Table 7, treatment with antisense oligonucleotides reduced CETP mRNA expression. The primer probe sets were used individually and collectively to measure CETP mRNA expression and gave similar results in all three cases. The RNA expression levels were normalized to murine Cyclophilin, a house-keeping gene, which is constitutively expressed. Cyclophilin levels were measured using the primer probe set described in Table 2. The results are expressed as percent inhibition of CETP mRNA, relative to the PBS control.

[8] = Body and organ weights of huCETP transgenic mice (Example 5); type: in vivo; settings: 50 mg/kg i.p. twice per week
Method: as §1
The body weights of the mice were measured pre-dose and regularly during the treatment period. The body weights are presented in Table 10, and are expressed in grams.

Substance | Percent inhibition of human CETP mRNA ([1]; 100 nM) | Percent inhibition of human CETP mRNA ([1]; 200 nM) | % inhibition [3] | Percent inhibition of plasma CETP protein levels [4] | Glucose levels ([5]; week 3) | Glucose levels ([5]; week 6) | Percentage of HDL in total cholesterol ([6]; Week 3) | Percentage of HDL in total cholesterol ([6]; week 6) | HDL ([6]; week 3) | LDL ([6]; week 3) | Total cholesterol ([6]; week 3) | Triglycerides ([6]; week 3) | HDL ([6]; week 6) | LDL ([6]; week 6) | Total cholesterol ([6]; week 6) | Triglycerides ([6]; week 6) | VLDL ([6]; week 6) | Percent inhibition of liver CETP mRNA expression, Combined primer probe sets [7] | Percent inhibition of liver CETP mRNA expression, Primer probe set hCETP [7] | Percent inhibition of liver CETP mRNA expression, Primer probe set hCETP2_LTS00182 [7] | other results
ISIS 349512: 5-10-5 MOE gapmer TTGCCTTCTGCTACAAGCCC (sugars from the 5' end e5 d10 e5, backbone and methylation of C not given here) | 86% | 96% | 92% | 76% | 267 mg/dL | 248 mg/dL | 74% | 74% | 62 mg/dL | 14 mg/dL | 85 mg/dL | 100 mg/dL | 100 mg/dL | 31 mg/dL | 134 mg/dL | 92 mg/dL | 3 mg/dL | 95% | 96% | 94% | percent inhibition of CETP ([2]; 50 nM): 86%; percent inhibition of CETP ([2]; 150 nM): 98%; percent inhibition of CETP ([2]; 300 nM): 97%; Body weights ([8]; Week 0): 19 grams; Body weights ([8]; Week 1): 21 grams; Body weights ([8]; Week 2): 24 grams; Body weights ([8]; Week 4): 26 grams; Body weights ([8]; week 6): 28 grams; Organ weights, Kidney ([8]; week 6): 333.8 mg; Organ weights, Liver ([8]; week 6): 2.1 g; Organ weights, Spleen ([8]; week 6): 86.8 mg
ISIS 349515: 5-10-5 MOE gapmer AACTTCCACCACGCTGGAGG (sugars from the 5' end e5 d10 e5, backbone and methylation of C not given here) | 94% | 94% | 53% | 40% | 275 mg/dL | 237 mg/dL | 68% | 75% | 60 mg/dL | 19 mg/dL | 89 mg/dL | 83 mg/dL | 66 mg/dL | 18 mg/dL | 87 mg/dL | 115 mg/dL | 4 mg/dL | 57% | 63% | 52% | Body weights ([8]; Week 0): 25 grams; Body weights ([8]; Week 1): 26 grams; Body weights ([8]; Week 2): 27 grams; Body weights ([8]; Week 4): 28 grams; Body weights ([8]; week 6): 28 grams; Organ weights, Kidney ([8]; week 6): 349.5 mg; Organ weights, Liver ([8]; week 6): 1.7 g; Organ weights, Spleen ([8]; week 6): 89.3 mg
